Measurements as given in article PMC7091366 (Archives of Pharmacal Research, 2014).
Converted amounts (≈) assume the structure as drawn. “Also recorded” adds a separate entry of the source.

Columns and labels:
Cell viability = assay type: cell-based, baby hamster; settings: hamster, BHK-21 cells, CC50, BHK-21 cells, MTT
[1] = test system: Japanese encephalitis virus (JEV) strain T1P1; assay: JEV plaque reduction assay in BHK-21 cells; assay type: cell-based; settings: JEV 100 pfu, BHK-21 monolayer, plaques after 3 days
[2] = test system: Japanese encephalitis virus (JEV); assay: Quantitative assay of JEV yields by real-time RT-PCR; assay type: cell-based; settings: for Ct (real-time RT-PCR of JEV RNA in supernatant) / ΔCt (Ct experimental − Ct control) / Reduction in virus RNA loads: 10 μg/ml; for Ct (real-time RT-PCR of JEV RNA in supernatant) / ΔCt (Ct experimental − Ct control): JEV MOI 1, BHK-21 cells, 72 h; for Reduction in virus RNA loads: supernatant of infected BHK-21 cells, three days post infection; for inhibition at 10 µg/mL: Japanese encephalitis virus, BHK-21, read-out: Inhibition of JEV yields
[3] = test system: GAS-driven promoter (pGAS-Luc) in BHK-21 cells; assay: GAS-driven promoter dual-luciferase reporter assay; assay type: cell-based, baby hamster; settings: 10 μg/ml, 4 h, versus untreated cells
BHK-21 cells = assay: Cell viability; assay type: cell-based, baby hamster; settings: 72 h, MTT

| Compound | CC50 at 72 h (Cell viability) [µg/mL] | IC50 (JEV plaque reduction) [1] [µg/mL] | Ct (real-time RT-PCR of JEV RNA in supernatant) [2] | ΔCt (Ct experimental − Ct control) [2] | Reduction in virus RNA loads [2] | inhibition at 10 µg/mL [2] [%] | Activity of GAS-driven promoter (relative firefly luciferase) ([3]; listed as aloe emodin) | Activity of GAS-driven promoter (relative firefly luciferase) ([3]; listed as aloe-emodin) | CC50 (BHK-21 cells) [µg/mL] | Activity of GAS-driven promoter (relative firefly luciferase) [3] |
| --- | --- | --- | --- | --- | --- | --- | --- | --- | --- | --- |
| O=C1c2cccc(O)c2C(=O)c2c(O)cc(CO)cc21 [Aloe-emodin] | 20.2 ± 1.01 (≈ 74.7 µM) | 17.39 ± 0.58 (≈ 64.4 µM) | 32.25 | 6.72 | more than 1 log | 90 | significantly activated | significantly increased | – | – |
| Cc1cc(O)c2c(c1)C(=O)c1cc(O)cc(O)c1C2=O [Emodin] | – | – | – | – | – | – | – | – | 5.49 ± 1.82 (≈ 20.3 µM) | – |
| COc1cc(O)c2c(c1)C(=O)c1cc(C)cc(O)c1C2=O [Physcion] | 20.7 ± 4.66 (≈ 72.8 µM) | – | – | – | – | – | – | – | – | – |
| Cc1cc(O)c2c(c1)C(=O)c1cccc(O)c1C2=O [Chrysophanol] | 18.2 ± 5.53 (≈ 71.5 µM) | 15.82 ± 2.62 (≈ 62.2 µM) | 29.26 | 3.73 | more than 1 log | 90 | – | – | – | significantly activated; also recorded: significantly increased |
